The record followed here is patent publication US9540377B2, “2,6,7,8 substituted purines as HDM2 inhibitors” (Merck Sharp & Dohme Corp., priority 2013, dated 2017).

The structures appear in SMILES notation.

Chain of HDM2 (truncated, residues 17 to 125, containing p53 binding surface) (Q00987 17-125): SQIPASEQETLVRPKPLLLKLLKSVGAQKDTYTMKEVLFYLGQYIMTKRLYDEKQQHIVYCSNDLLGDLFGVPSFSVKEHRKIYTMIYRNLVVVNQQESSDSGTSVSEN

For one experiment, the target named is HDM2 (truncated, residues 17 to 125, containing p53 binding surface) (Homo sapiens (Human), UniProt Q00987). Description: HDM2 FRET assay (inhibition of binding of FITC labeled p53-site peptide to HDM2). Particulars: Table 16. The text has this:
IC50 DETERMINATIONS: Dose-response curves were plotted from the inhibition data, from 10 point serial dilutions of inhibitory compounds. Concentration of compound was plotted against em520/Cem495 ratio signal. To generate IC50 values, the dose-response curves were fitted to a standard sigmoidal curve and IC50 values were derived by nonlinear regression analysis.
What is called IC50 is the concentration needed to halve the response being measured. High values mean weaker potency, low ones greater potency. For `C[C@H]1CC[C@H](Cn2c(N3CCOC4CCCCC43)nc3nc(-c4noc(=O)[nH]4)nc(-c4cncc(Cl)c4)c32)CC1` (single isomer, unassigned) [Example 16.51, 3-[6-(5-chloropyridin-3-yl)-7-[(trans-4-methylcyclohexyl)methyl]-8-(octahydro-4H-1,4-benzoxazin-4-yl)-7H-purin-2-yl]-1,2,4-oxadiazol-5(4H)-one], the concentration for half-maximal inhibition (IC50) turned out to be 30.2 nM.

Regarding `C[C@H]1CC[C@H](Cn2c(N3CCOC4CCCCC43)nc3nc(-c4noc(=O)[nH]4)nc(-c4cncc(Cl)c4)c32)CC1` (single isomer, unassigned) [Example 16.52, 3-[6-(5-chloropyridin-3-yl)-7-[(trans-4-methylcyclohexyl)methyl]-8-(octahydro-4H-1,4-benzoxazin-4-yl)-7H-purin-2-yl]-1,2,4-oxadiazol-5(4H)-one], the concentration for half-maximal inhibition (IC50) worked out at 1 nM.

For `COC(C)(C)C1CCCN1c1nc2nc(-c3n[nH]c(=O)o3)nc(-c3cccc(Cl)c3)c2n1C[C@H]1CC[C@H](C)CC1` (single isomer, unassigned) [Example 16.70, 5-{6-(3-chlorophenyl)-8-[2-(1-methoxy-1-methylethyl)pyrrolidin-1-yl]-7-[(trans-4-methylcyclohexyl)methyl]-7H-purin-2-yl}-1,3,4-oxadiazol-2(3H)-one], the half-maximal inhibitory concentration (IC50) was 2.29 nM.

On to `COC(C)(C)C1CCCN1c1nc2nc(-c3n[nH]c(=O)o3)nc(-c3cccc(Cl)c3)c2n1C[C@H]1CC[C@H](C)CC1` (single isomer, unassigned) [Example 16.71, 5-{6-(3-chlorophenyl)-8-[2-(1-methoxy-1-methylethyl)pyrrolidin-1-yl]-7-[(trans-4-methylcyclohexyl)methyl]-7H-purin-2-yl}-1,3,4-oxadiazol-2(3H)-one], for which the IC50 is 2.47 nM.

On to `COC(C)(C)C1CCCN1c1nc2nc(-c3noc(=O)[nH]3)nc(-c3cncc(Cl)c3)c2n1C[C@H]1CC[C@H](C)CC1` (single isomer, unassigned) [Example 16.72, 3-{6-(5-chloropyridin-3-yl)-8-[2-(1-methoxy-1-methylethyl)pyrrolidin-1-yl]-7-[(trans-4-methylcyclohexyl)methyl]-7H-purin-2-yl}-1,2,4-oxadiazol-5(4H)-one], for which the IC50 was 0.985 nM.

`COC(C)(C)C1CCCN1c1nc2nc(-c3noc(=O)[nH]3)nc(-c3cncc(Cl)c3)c2n1C[C@H]1CC[C@H](C)CC1` (single isomer, unassigned) [Example 16.73, 3-{6-(5-chloropyridin-3-yl)-8-[2-(1-methoxy-1-methylethyl)pyrrolidin-1-yl]-7-[(trans-4-methylcyclohexyl)methyl]-7H-purin-2-yl}-1,2,4-oxadiazol-5(4H)-one] yielded an IC50 of 1.97 nM.

`C[C@H]1CC[C@H](Cn2c(N3CCOC4CCCCC43)nc3nc(-c4noc(=O)[nH]4)nc(-c4cccc(Cl)c4)c32)CC1` (single isomer, unassigned) [Example 16.77, 3-(6-(3-chlorophenyl)-7-[(trans-4-methylcyclohexyl)methyl]-8-(octahydro-4H-1,4-benzoxazin-4-yl)-7H-purin-2-yl]-1,2,4-oxadiazol-5(4H)-one] had an IC50 of 29.7 nM.

The molecule `C[C@H]1CC[C@H](Cn2c(N3CCOC4CCCCC43)nc3nc(-c4noc(=O)[nH]4)nc(-c4cccc(Cl)c4)c32)CC1` (single isomer, unassigned) [Example 16.78, 3-(6-(3-chlorophenyl)-7-[(trans-4-methylcyclohexyl)methyl]-8-(octahydro-4H-1,4-benzoxazin-4-yl)-7H-purin-2-yl]-1,2,4-oxadiazol-5(4H)-one] had an IC50 of 1.4 nM.

As to `C[C@H]1CC[C@H](Cn2c(N3CCCC4COCCC43)nc3nc(-c4noc(=O)[nH]4)nc(-c4cccc(Cl)c4)c32)CC1` (single isomer, unassigned) [Example 16.119, 3-{6-[3-chlorophenyl)-8-(hexahydro-2H-pyrano[4,3-b]pyridin-1(5H)-yl)-7-[(trans-4-methylcyclohexyl)methyl]-7H-purin-2-yl}-1,2,4-oxadiazol-5(4H)-one], the IC50 was 60.9 nM.

The experiment is the same for the next values; noted with them: Table 23.
`COC(C)(c1nc2nc(-c3noc(=O)[nH]3)nc(-c3cncc(Cl)c3)c2n1C[C@H]1CC[C@H](C)CC1)C1CCCC1` (mixture of isomers) [Example 23.71, 3-{6-(5-chloropyridin-3-yl)-8-(1-cyclopentyl-1-methoxyethyl)-7-[(trans-4-methylcyclohexyl)methyl]-7H-purin-2-yl}-1,2,4-oxadiazol-5(4H)-one] registered an IC50 of 1.29 nM.

`COC(C)(c1nc2nc(-c3n[nH]c(=O)o3)nc(-c3cncc(Cl)c3)c2n1C[C@H]1CC[C@H](C)CC1)C1CCCC1` (mixture of isomers) [Example 23.72, 5-{6-(5-chloropyridin-3-yl)-8-(1-cyclopentyl-1-methoxyethyl)-7-[(trans-4-methylcyclohexyl)methyl]-7H-purin-2-yl}-1,3,4-oxadiazol-2(3H)-one]: the IC50 is 2.6 nM.

In turn, `COc1ccccc1C(C)(OC)c1nc2nc(-c3n[nH]c(=O)o3)nc(-c3cncc(Cl)c3)c2n1C[C@H]1CC[C@H](C)CC1` (mixture of isomers) [Example 23.78, 5-{6-(5-chloropyridin-3-yl)-8-[1-methoxy-1-(2-methoxyphenyl)ethyl]-7-[(trans-4-methylcyclohexyl)methyl]-7H-purin-2-yl}-1,3,4-oxadiazol-2(3H)-one] displayed an IC50 of 8.22 nM.

`COc1ccccc1C(C)(OC)c1nc2nc(-c3noc(=O)[nH]3)nc(-c3cncc(Cl)c3)c2n1C[C@H]1CC[C@H](C)CC1` (mixture of isomers) [Example 23.79, 3-{6-(5-chloropyridin-3-yl)-8-[1-methoxy-1-(2-methoxyphenyl)ethyl]-7-[(trans-4-methylcyclohexyl)methyl]-7H-purin-2-yl}-1,2,4-oxadiazol-5(4H)-one] came in with an IC50 of 3.8 nM.

`COC1(c2nc3nc(-c4n[nH]c(=O)o4)nc(-c4cncc(Cl)c4)c3n2C[C@H]2CC[C@H](C)CC2)CCOc2cccnc21` (mixture of isomers) [Example 23.90, 5-{6-(5-chloropyridin-3-yl)-8-(4-methoxy-3,4-dihydro-2H-pyrano[3,2-b]pyridin-4-yl)-7-[(trans-4-methylcyclohexyl)methyl]-7H-purin-2-yl}-1,3,4-oxadiazol-2(3H)-one] showed an IC50 of 7.41 nM.

The molecule `CC(C)(C)C(C)(F)c1nc2nc(-c3noc(=O)[nH]3)nc(-c3cncc(Cl)c3)c2n1C[C@H]1CC[C@H](C)CC1` (mixture of isomers) [Example 23.91, 3-{6-(5-chloropyridin-3-yl)-8-(1-fluoro-1,2,2-trimethylpropyl)-7-[(trans-4-methylcyclohexyl)methyl]-7H-purin-2-yl}-1,2,4-oxadiazol-5(4H)-one] showed an IC50 of 13 nM.

In the case of `C[C@H]1CC[C@H](Cn2c(C3(F)CCOc4cccnc43)nc3nc(-c4n[nH]c(=O)o4)nc(-c4cncc(Cl)c4)c32)CC1` (mixture of isomers) [Example 23.92, 5-{6-(5-chloropyridin-3-yl)-8-(4-fluoro-3,4-dihydro-2H-pyrano[3,2-b]pyridin-4-yl)-7-[(trans-4-methylcyclohexyl)methyl]-7H-purin-2-yl}-1,3,4-oxadiazol-2(3H)-one], the IC50 is 2.45 nM.

`COCC(C)(F)c1nc2nc(-c3n[nH]c(=O)o3)nc(-c3cncc(Cl)c3)c2n1C[C@H]1CC[C@H](C)CC1` (mixture of isomers) [Example 23.106, 5-{6-(5-chloropyridin-3-yl)-8-(1-fluoro-2-methoxy-1-methylethyl)-7-[(trans-4-methylcyclohexyl)methyl]-7H-purin-2-yl}-1,3,4-oxadiazol-2(3H)-one]: the IC50 was 3.93 nM.

In turn, `COCC(C)(OC)c1nc2nc(-c3noc(=O)[nH]3)nc(-c3cncc(Cl)c3)c2n1C[C@H]1CC[C@H](C)CC1` (mixture of isomers) [Example 23.107, 3-{6-(5-chloropyridin-3-yl)-8-(1,2-dimethoxy-1-methylethyl)-7-[(trans-4-methylcyclohexyl)methyl]-7H-purin-2-yl}-1,2,4-oxadiazol-5(4H)-one] came in with an IC50 of 5.37 nM.

In the case of `CC(F)(c1ccccc1C#N)c1nc2nc(-c3noc(=O)[nH]3)nc(-c3cncc(Cl)c3)c2n1C[C@H]1CC[C@H](C)CC1` (mixture of isomers) [Example 23.110, 2-{1-[6-(5-chloropyridin-3-yl)-7-[(trans-4-methylcyclohexyl)methyl]-2-(5-oxo-4,5-dihydro-1,2,4-oxadiazol-3-yl)-7H-purin-8-yl]-1-fluoroethyl}benzonitrile], the IC50 amounted to 0.515 nM.

With `CC(c1ccccc1F)c1nc2nc(-c3noc(=O)[nH]3)nc(-c3cncc(Cl)c3)c2n1C[C@H]1CC[C@H](C)CC1` (mixture of isomers) [Example 23.113, 3-{6-(5-chloropyridin-3-yl)-8-[1-(2-fluorophenyl)ethyl]-7-[(trans-4-methylcyclohexyl)methyl]-7H-purin-2-yl}-1,2,4-oxadiazol-5(4H)-one], the IC50 came to 1.39 nM.

Regarding `CC(c1ccccc1F)c1nc2nc(-c3n[nH]c(=O)o3)nc(-c3cncc(Cl)c3)c2n1C[C@H]1CC[C@H](C)CC1` (mixture of isomers) [Example 23.114, 5-{6-(5-chloropyridin-3-yl)-8-[1-(2-fluorophenyl)ethyl]-7-[(trans-4-methylcyclohexyl)methyl]-7H-purin-2-yl}-1,3,4-oxadiazol-2(3H)-one], the IC50 came to 2.13 nM.

`CC(c1c(F)cccc1F)c1nc2nc(-c3noc(=O)[nH]3)nc(-c3cncc(Cl)c3)c2n1C[C@H]1CC[C@H](C)CC1` (mixture of isomers) [Example 23.115, 3-{6-(5-chloropyridin-3-yl)-8-[1-(2,6-difluorophenyl)ethyl]-7-[(trans-4-methylcyclohexyl)methyl]-7H-purin-2-yl}-1,2,4-oxadiazol-5(4H)-one] returned an IC50 of 2.23 nM.

Take `CC(c1ccccc1C#N)c1nc2nc(-c3noc(=O)[nH]3)nc(-c3cncc(Cl)c3)c2n1C[C@H]1CC[C@H](C)CC1` (mixture of isomers) [Example 23.116, 2-{1-[6-(5-chloropyridin-3-yl)-7-[(trans-4-methylcyclohexyl)methyl]-2-(5-oxo-4,5-dihydro-1,2,4-oxadiazol-3-yl)-7H-purin-8-yl]ethyl}benzonitrile]: the half-maximal inhibitory concentration (IC50) came out at 2.38 nM.
